Legend:
Assay type in all cases: in vivo
[1] = test system: Echinochloa crusgalli, Scirpus juncoides, Bidens tripartita L. and Sagittaria trifolia; experiment: Weed control effect evaluation in rice field; settings: weeds collected from Heilongjiang Province of China
Description: Transplanted rice safety evaluation and weed control effect evaluation in rice field:
Rice field soil was loaded into a 1/1,000,000 ha pot. The seeds of Echinochloa crusgalli, Scirpus juncoides, and Bidens tripartita L. were sowed and gently covered with soil, then left to stand still in greenhouse in the state of 0.5-1 cm of water storage. The tuber of Sagittaria trifolia was planted in the next day or 2 days later. It was kept at 3-4 cm of water storage thereafter. The weeds were treated by dripping the WP or SC water diluents prepared according to the common preparation method of the compounds of the present invention with pipette homogeneously to achieve specified effective amount when Echinochloa crusgalli, Scirpus juncoides, and Bidens tripartita L. reached 0.5 leaf stage and Sagittaria trifolia reached the time point of primary leaf stage.
The fertility condition of Echinochloa crusgalli, Scirpus juncoides, Bidens tripartita L. and Sagittaria trifolia 14 days after the treatment of the compound of the invention and the fertility condition of rice 21 days after the treatment of the compound of the invention respectively with the naked eye. Evaluate the weed control effect with the above activity standard level. Many compounds show excellent activity and selectivity. […]

Veronica didyma Tenore = experiment: Experiment on weeding effect in post-emergence stage; settings: dose 15 g a.i./ha, fresh weight control rate level
Outline: (§1)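 Post-emergence spray-tower treatment at 2-3 leaf stage, doses 500, 250, 125, 60, 15 g a.i./ha. Formulation: acetone solution plus Tween 80, methyl oleate EC synergist (1.5 liter/ha), diluted in water. Greenhouse pots; weed control counted 3 weeks post-application, mean of three repeats.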

Amaranthus retroflexus = experiment: as above; settings: dose 15 g a.i./ha, fresh weight control rate level
Outline: as §1

Setaria viridis = experiment: as above; settings: dose 15 g a.i./ha, fresh weight control rate level
Outline: as §1

Eleusine indica = experiment: as above; settings: dose 15 g a.i./ha, fresh weight control rate level
Outline: as §1

Digitaria sanguinalis = experiment: as above; settings: dose 15 g a.i./ha, fresh weight control rate level
Outline: as §1

Leptochloa chinensis = experiment: as above; settings: dose 15 g a.i./ha, fresh weight control rate level
Outline: as §1

Echinochloa crusgalli = experiment: as above; settings: dose 15 g a.i./ha, fresh weight control rate level
Outline: as §1

Abutilon theophrasti = experiment: as above; settings: dose 15 g a.i./ha, fresh weight control rate level
Outline: as §1

Galium aparine = experiment: as above; settings: dose 15 g a.i./ha, fresh weight control rate level
Outline: as §1

SMILES	response of the test weeds to common doses [1]	weeding effect in post-emergence stage, Veronica didyma Tenore (level) (Veronica didyma Tenore)	weeding effect in post-emergence stage, Amaranthus retroflexus (level) (Amaranthus retroflexus)	weeding effect in post-emergence stage, Setaria viridis (level) (Setaria viridis)	weeding effect in post-emergence stage, Eleusine indica (level) (Eleusine indica)	weeding effect in post-emergence stage, Digitaria sanguinalis (level) (Digitaria sanguinalis)	weeding effect in post-emergence stage, Leptochloa chinensis (level) (Leptochloa chinensis)	weeding effect in post-emergence stage, Echinochloa crusgalli (level) (Echinochloa crusgalli)	weeding effect in post-emergence stage, Abutilon theophrasti (level) (Abutilon theophrasti)	weeding effect in post-emergence stage, Galium aparine (level) (Galium aparine)
CCOC(=O)c1cnn(C)c1S(=O)(=O)NC(=O)Nc1nc(OC)cc(OC)n1 [Pyrazosulfuron-ethyl]	resistant									
CC(=NOC(=O)C1(C)CC(c2cc(-n3c(=O)n(C)c(=S)n(C)c3=O)c(F)cc2Cl)=NO1)C(C)C (mixture of isomers) [Compound 80]		5 (Level 5: growth control rate is above 85%)	5 (Level 5: growth control rate is above 85%)	5 (Level 5: growth control rate is above 85%)	5 (Level 5: growth control rate is above 85%)	5 (Level 5: growth control rate is above 85%)	5 (Level 5: growth control rate is above 85%)	5 (Level 5: growth control rate is above 85%)	5 (Level 5: growth control rate is above 85%)	5 (Level 5: growth control rate is above 85%)
C/C(=N/OC(=O)C1(C)CC(c2cc(-n3c(=O)n(C)c(=S)n(C)c3=O)c(F)cc2Cl)=NO1)c1ccccc1 (stereo not shown) [Compound 124]		5 (Level 5: growth control rate is above 85%)	5 (Level 5: growth control rate is above 85%)	5 (Level 5: growth control rate is above 85%)	5 (Level 5: growth control rate is above 85%)	5 (Level 5: growth control rate is above 85%)	5 (Level 5: growth control rate is above 85%)	5 (Level 5: growth control rate is above 85%)	5 (Level 5: growth control rate is above 85%)	5 (Level 5: growth control rate is above 85%)
CC/C(C)=N/OC(=O)C1(C)CC(c2cc(-n3c(=O)n(C)c(=S)n(C)c3=S)c(F)cc2Cl)=NO1 (stereo not shown) [Compound 57]		5 (Level 5: growth control rate is above 85%)	5 (Level 5: growth control rate is above 85%)	5 (Level 5: growth control rate is above 85%)	5 (Level 5: growth control rate is above 85%)	5 (Level 5: growth control rate is above 85%)	5 (Level 5: growth control rate is above 85%)	5 (Level 5: growth control rate is above 85%)	5 (Level 5: growth control rate is above 85%)	5 (Level 5: growth control rate is above 85%)
CC(C)=NOC(=O)C1(C)CC(c2cc(-n3c(=O)n(C)c(=S)n(C)c3=S)c(F)cc2Cl)=NO1 (stereo not shown) [Compound 56]		5 (Level 5: growth control rate is above 85%)	5 (Level 5: growth control rate is above 85%)	5 (Level 5: growth control rate is above 85%)	5 (Level 5: growth control rate is above 85%)	5 (Level 5: growth control rate is above 85%)	5 (Level 5: growth control rate is above 85%)	5 (Level 5: growth control rate is above 85%)	5 (Level 5: growth control rate is above 85%)	5 (Level 5: growth control rate is above 85%)
Cc1ccc(C=NOC(=O)C2(C)CC(c3cc(-n4c(=O)n(C)c(=S)n(C)c4=O)c(F)cc3Cl)=NO2)o1 (mixture of isomers) [Compound 117]		5 (Level 5: growth control rate is above 85%)	5 (Level 5: growth control rate is above 85%)	5 (Level 5: growth control rate is above 85%)	5 (Level 5: growth control rate is above 85%)	5 (Level 5: growth control rate is above 85%)	5 (Level 5: growth control rate is above 85%)	5 (Level 5: growth control rate is above 85%)	5 (Level 5: growth control rate is above 85%)	5 (Level 5: growth control rate is above 85%)
Cn1c(=S)n(C)c(=S)n(-c2cc(C3=NOC(C)(C(=O)O/N=C/c4ccccc4)C3)c(Cl)cc2F)c1=O (stereo not shown) [Compound 69]		5 (Level 5: growth control rate is above 85%)	5 (Level 5: growth control rate is above 85%)	5 (Level 5: growth control rate is above 85%)	5 (Level 5: growth control rate is above 85%)	5 (Level 5: growth control rate is above 85%)	5 (Level 5: growth control rate is above 85%)	5 (Level 5: growth control rate is above 85%)	5 (Level 5: growth control rate is above 85%)	5 (Level 5: growth control rate is above 85%)
